Reference: publication PMC11289455 (Scientific Reports, 2024)
Where “and” joins values, the source holds several entries; their conditions need not be identical. Equal values may be shown once. Positions of bridges follow the written chain, without caps; N, C: chain ends. Non-standard residues stand in square brackets, D forms with d. Trp(7-Me) = Cc1cccc2c(C[C@H](N)C(=O)O)c[nH]c12; 2Nal = N[C@@H](Cc1ccc2ccccc2c1)C(=O)O; AEF = NCCOc1ccc(C[C@H](N)C(=O)O)cc1; 3Pal = N[C@@H](Cc1cccnc1)C(=O)O; Pen = CC(C)(S)[C@H](N)C(=O)O; Thp = NC1(C(=O)O)CCOCC1; Sar = CNCC(=O)O

What was measured:
[1] = system: IL-12– and IL-23–dependent phosphorylation of STAT4 and STAT3; parameters: method as in PMID 31341059; details: cited from earlier work
[2] = biological target: T1, Biotinylated recombinant rat IL23R (rIL23R^biot, hGH.ratIL23R.24-317.GS.Avi.TEV.8His) (rat, UniProt F1LX96 24-317, biotinylated (TurboBiotinylase)); assay: SPR; ~2500 RU biotinylated rat IL-23R captured on a streptavidin chip; JNJ-77242113 injected at multiple concentrations; PBS, 0.05% P20, 5% DMSO; 37 °C; association 150 s, dissociation 2000 s; Biacore 8K+, parallel kinetics, 1:1 binding model; details: both partners purified
T1 construct: rat IL-23 receptor subunit IL-23R, extracellular domain, residues 24-317, from the construct name hGH.ratIL23R.24-317.GS.Avi.TEV.8His; A GS linker stands between the receptor and the Avi tag; The 8His tag follows a TEV site; also called rat IL-23R ECD; not shown: Avi, C-terminal, kept; His8, C-terminal, cleaved
T1 sequence (looked up): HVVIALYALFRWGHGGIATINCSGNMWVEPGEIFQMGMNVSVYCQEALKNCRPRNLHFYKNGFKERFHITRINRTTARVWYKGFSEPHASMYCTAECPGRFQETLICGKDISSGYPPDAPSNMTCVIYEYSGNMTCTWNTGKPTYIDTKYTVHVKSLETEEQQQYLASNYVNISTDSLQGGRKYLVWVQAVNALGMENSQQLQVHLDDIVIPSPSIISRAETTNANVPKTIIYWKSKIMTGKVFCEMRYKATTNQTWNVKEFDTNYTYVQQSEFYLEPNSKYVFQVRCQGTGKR

| Molecule | Effect on IL-12– and IL-23–dependent phosphorylation of STAT4 and STAT3 [1] | Kd [2] |
| --- | --- | --- |
| deucravacitinib | inhibits both |  |
| Ac-[Pen]NT[Trp(7-Me)]K(Ac)[Pen][AEF][2Nal][Thp]EN[3Pal][Sar]-NH2 (disulfide 1-6) [JNJ-77242113] |  | 0.0175 nM and 0.012 to 0.023 nM |
